Data from patent US6699497B1 (Alza Corporation, priority 1998, dated 2004).
Counter-ions that a name gives are not always drawn.

Key:
[1] = in vitro transdermal flux of fenoldopam through human epidermis; format: in vitro ADME
Excerpt: The resulting mix was then calendered to a 5 mil thickness between 2 release liners. The drug reservoir was then heat laminated to a Medpar® backing on one surface and a 3M acrylate adhesive on the other. Circular systems were cut with a stainless steel punch.
The release liner of the matrix system was then removed and each system had its exposed edges masked. The systems were then mounted on a Teflon® holder of a release rate rod using nylon mesh and nickel wire. A known volume of receptor solution (30 ml 0.01 M phosphate buffer solution at pH 2.5) was then placed in a test tube and equilibrated at 35° C. The test tube was placed in a water bath and maintained at 35° C. The Teflon rod with attached system was then reciprocated within the test tube by attaching the rod to a motor which caused constant vertical mixing.
At given time intervals, the entire receptor solution was removed from the test tubes and replaced with an equal volume of fresh receptor solutions previously equilibrated at 35° C. […] From the drug concentration and the volume of the receptor solutions, the area of the system and the time interval, the release rate of the drug from the system was calculated as follows: (drug concentration X volume of receptor)/(area x time) =release rate (μg/cm^2·hr).
(§1) Transdermal systems set forth in Table 1 were prepared according to Example 1 and used to measure permeation through human cadaver skin. […] The edges of epidermis were then folded around the system so that none of the system edge was exposed to the receptor solution. […] The receptor compartment was filled with a known volume of 0.01 M KH2PO4/K2HPO4 which was adjusted to pH 2.5 with 10% H3PO4 buffer solution previously equilibrated at 35° C.
as §1, with “in Table 2 were prepared” for “in Table 1 were prepared”, “according to the procedure set forth in Example 1” for “according to Example 1”

[2] = mild to moderate hypertensive patients; cited from earlier work
[3] = in vivo; cited from earlier work
[4] = oral administration; cited from earlier work

Compound: Oc1ccc(C2CNCCc3c2cc(O)c(O)c3Cl)cc1 (stereo not shown) [fenoldopam base]
- lag period on transdermal administration [1]: long lag period
- permeability through the skin, formulations of base compared to formulations of salts ([1]; in general, compared to salts such as fenoldopam mesylate): more permeable through the skin

Compound: Oc1ccc(C2CNCCc3c2cc(O)c(O)c3Cl)cc1 (stereo not shown) [fenoldopam mesylate]
- lag period on transdermal administration [1]: did not exhibit the long lag period
- transdermal flux compared to formulations of the base ([1]; myristyl sarcosine as permeation enhancer): higher transdermal fluxes

Compound: Oc1ccc(C2CNCCc3c2cc(O)c(O)c3Cl)cc1 (stereo not shown) [fenoldopam, 6-Chloro-2,3,4,5-tetrahydro-1-(4-hydroxyphenol)-1H-3-benzapine-7,8 diol]
- elimination half-life [2]: about 5 minutes
- effect on systolic and diastolic blood pressure [3]: dose-dependent reduction in systolic and diastolic blood pressure
- clinical benefit [4]: does not provide any clinical benefit
